# Data: publication PMC11864979, “First-in-class ultralong-target-residence-time p38α inhibitors as a mitosis-targeted therapy for colorectal cancer” (Nature Cancer, 2025)
# Read-outs that look alike come from different tables or passages of the source.
# Legend:
# Assay in all cases: selectivity profiling in a panel of 340 wild-type kinases (Reaction Biology Europe)
# Format in all cases: binding
# 340 wild-type kinases [1] = target: T1, 340 wild-type kinases (Homo sapiens, UniProt O14733)
# T1 construct: purchased Reaction Biology Europe
# T1 sequence (O14733 1-419): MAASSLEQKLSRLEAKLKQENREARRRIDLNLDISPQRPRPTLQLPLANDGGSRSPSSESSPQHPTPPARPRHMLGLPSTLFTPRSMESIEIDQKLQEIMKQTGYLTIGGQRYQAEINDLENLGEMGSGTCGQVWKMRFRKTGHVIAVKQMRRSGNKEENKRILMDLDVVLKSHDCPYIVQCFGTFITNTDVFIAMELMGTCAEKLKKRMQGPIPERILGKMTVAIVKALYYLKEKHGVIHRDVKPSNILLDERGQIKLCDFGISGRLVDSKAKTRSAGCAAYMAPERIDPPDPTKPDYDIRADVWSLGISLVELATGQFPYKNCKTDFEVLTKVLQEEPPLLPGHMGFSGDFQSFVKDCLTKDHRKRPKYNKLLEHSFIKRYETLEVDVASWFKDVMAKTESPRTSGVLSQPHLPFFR
# 340 wild-type kinases [2] = target: T2, 340 wild-type kinases (Homo sapiens, UniProt P04049, Y340D/Y341D); details: read-out: RAF1 YDYD residual activity
# T2 construct: purchased Reaction Biology Europe
# 340 wild-type kinases [3] = target: T3, 340 wild-type kinases (Homo sapiens, UniProt P32298)
# T3 construct: purchased Reaction Biology Europe
# 340 wild-type kinases [4] = target: T4, 340 wild-type kinases (Homo sapiens, UniProt P43250)
# T4 construct: purchased Reaction Biology Europe
# 340 wild-type kinases [5] = target: T5, 340 wild-type kinases (Homo sapiens, UniProt P49674)
# T5 construct: purchased Reaction Biology Europe
# 340 wild-type kinases [6] = target: T6, 340 wild-type kinases (Homo sapiens, UniProt P49759)
# T6 construct: purchased Reaction Biology Europe
# 340 wild-type kinases [7] = target: T7, 340 wild-type kinases (Homo sapiens, UniProt P51813)
# T7 construct: purchased Reaction Biology Europe
# T7 sequence (P51813 1-675): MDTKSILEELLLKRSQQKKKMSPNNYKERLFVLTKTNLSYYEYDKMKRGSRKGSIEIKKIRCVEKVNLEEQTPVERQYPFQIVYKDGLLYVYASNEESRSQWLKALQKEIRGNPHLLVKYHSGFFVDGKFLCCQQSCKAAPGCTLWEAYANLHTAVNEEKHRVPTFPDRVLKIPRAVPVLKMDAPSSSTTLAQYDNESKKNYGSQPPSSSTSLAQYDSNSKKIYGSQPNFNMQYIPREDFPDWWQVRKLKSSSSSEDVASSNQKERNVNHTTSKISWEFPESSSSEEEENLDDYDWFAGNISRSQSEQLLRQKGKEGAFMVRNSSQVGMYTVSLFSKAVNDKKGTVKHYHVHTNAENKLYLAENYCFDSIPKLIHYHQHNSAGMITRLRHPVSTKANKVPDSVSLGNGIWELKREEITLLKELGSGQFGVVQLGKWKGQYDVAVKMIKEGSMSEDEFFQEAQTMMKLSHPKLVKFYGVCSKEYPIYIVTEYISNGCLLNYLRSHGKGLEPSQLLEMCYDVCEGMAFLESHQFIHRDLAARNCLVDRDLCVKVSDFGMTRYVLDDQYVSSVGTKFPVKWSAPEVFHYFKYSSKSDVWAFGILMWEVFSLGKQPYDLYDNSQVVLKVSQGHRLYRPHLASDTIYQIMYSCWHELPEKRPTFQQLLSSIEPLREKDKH
# 340 wild-type kinases [8] = target: T8, 340 wild-type kinases (Homo sapiens, UniProt P57078)
# T8 construct: purchased Reaction Biology Europe
# T8 sequence (P57078 1-832): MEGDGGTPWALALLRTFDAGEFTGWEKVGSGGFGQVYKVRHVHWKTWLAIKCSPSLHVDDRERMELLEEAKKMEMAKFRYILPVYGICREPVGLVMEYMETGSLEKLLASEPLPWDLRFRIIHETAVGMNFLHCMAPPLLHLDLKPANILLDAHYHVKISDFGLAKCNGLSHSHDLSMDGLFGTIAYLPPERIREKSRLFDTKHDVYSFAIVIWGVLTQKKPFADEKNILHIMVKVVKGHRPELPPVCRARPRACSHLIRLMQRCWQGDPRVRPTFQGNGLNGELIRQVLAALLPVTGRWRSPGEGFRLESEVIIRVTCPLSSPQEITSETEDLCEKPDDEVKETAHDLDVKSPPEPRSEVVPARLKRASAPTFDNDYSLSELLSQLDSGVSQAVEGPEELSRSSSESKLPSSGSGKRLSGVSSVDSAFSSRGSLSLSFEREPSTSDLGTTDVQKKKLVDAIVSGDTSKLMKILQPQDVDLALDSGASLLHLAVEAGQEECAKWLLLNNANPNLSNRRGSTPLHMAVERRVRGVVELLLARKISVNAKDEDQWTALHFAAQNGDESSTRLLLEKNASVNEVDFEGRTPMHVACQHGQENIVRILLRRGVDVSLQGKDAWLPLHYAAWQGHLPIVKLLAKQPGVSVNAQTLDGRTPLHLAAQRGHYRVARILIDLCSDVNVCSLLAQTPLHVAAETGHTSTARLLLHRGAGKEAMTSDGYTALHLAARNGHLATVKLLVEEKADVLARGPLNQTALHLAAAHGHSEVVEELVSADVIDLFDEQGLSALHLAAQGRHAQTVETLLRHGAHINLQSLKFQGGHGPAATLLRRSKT
# 340 wild-type kinases [9] = target: T9, 340 wild-type kinases (Homo sapiens, UniProt Q9H0K1)
# T9 construct: purchased Reaction Biology Europe
# T9 sequence (Q9H0K1 whole entry): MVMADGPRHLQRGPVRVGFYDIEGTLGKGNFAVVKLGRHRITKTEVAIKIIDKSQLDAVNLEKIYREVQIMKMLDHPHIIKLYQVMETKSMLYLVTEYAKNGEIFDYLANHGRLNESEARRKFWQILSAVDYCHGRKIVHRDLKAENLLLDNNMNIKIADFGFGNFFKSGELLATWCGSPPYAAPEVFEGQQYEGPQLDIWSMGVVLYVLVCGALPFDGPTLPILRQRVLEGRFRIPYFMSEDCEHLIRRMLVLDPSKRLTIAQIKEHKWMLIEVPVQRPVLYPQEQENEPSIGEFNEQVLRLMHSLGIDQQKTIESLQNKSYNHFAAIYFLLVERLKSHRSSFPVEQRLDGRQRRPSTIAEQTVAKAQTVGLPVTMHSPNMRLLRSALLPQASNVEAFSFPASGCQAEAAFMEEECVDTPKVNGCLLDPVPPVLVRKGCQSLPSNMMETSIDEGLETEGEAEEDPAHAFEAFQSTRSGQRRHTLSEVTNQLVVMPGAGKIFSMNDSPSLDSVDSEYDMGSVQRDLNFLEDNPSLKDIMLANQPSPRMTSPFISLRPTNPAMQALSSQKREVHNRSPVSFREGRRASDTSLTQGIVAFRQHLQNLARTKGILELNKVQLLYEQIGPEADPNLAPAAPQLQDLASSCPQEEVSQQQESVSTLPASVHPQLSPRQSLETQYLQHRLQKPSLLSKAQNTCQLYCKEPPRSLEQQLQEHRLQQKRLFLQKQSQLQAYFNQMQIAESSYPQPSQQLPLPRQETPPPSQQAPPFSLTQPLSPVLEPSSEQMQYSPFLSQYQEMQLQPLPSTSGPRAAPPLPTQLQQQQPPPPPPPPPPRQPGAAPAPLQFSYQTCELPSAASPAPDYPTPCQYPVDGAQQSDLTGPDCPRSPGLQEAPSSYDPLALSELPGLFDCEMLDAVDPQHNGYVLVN
# T6 sequence (P49759 whole entry): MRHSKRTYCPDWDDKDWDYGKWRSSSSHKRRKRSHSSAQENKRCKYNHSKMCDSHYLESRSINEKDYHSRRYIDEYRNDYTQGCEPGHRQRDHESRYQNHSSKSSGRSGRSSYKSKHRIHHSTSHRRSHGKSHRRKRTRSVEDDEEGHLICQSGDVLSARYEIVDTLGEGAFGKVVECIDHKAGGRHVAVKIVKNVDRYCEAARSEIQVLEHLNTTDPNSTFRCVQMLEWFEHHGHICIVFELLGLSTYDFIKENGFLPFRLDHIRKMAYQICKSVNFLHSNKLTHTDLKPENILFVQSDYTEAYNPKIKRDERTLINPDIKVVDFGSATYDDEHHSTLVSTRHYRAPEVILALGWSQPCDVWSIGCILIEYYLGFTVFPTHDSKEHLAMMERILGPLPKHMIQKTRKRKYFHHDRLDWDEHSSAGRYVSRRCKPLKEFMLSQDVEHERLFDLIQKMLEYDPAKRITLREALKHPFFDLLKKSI
# T4 sequence (P43250 whole entry): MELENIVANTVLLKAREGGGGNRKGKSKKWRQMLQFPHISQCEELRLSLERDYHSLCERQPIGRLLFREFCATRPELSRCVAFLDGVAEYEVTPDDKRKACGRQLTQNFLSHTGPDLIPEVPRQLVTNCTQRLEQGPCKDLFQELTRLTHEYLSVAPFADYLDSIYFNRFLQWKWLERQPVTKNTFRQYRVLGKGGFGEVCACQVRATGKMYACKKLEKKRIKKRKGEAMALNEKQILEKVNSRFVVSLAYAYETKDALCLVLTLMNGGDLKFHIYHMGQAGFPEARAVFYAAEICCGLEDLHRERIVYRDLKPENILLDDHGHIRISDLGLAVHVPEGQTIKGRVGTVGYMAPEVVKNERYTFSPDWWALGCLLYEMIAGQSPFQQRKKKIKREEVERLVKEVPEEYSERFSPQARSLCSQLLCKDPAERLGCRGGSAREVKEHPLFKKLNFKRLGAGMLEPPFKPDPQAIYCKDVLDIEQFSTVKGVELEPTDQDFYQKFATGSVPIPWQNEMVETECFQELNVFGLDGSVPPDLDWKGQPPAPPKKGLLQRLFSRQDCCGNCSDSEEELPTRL
# T3 sequence (P32298 whole entry): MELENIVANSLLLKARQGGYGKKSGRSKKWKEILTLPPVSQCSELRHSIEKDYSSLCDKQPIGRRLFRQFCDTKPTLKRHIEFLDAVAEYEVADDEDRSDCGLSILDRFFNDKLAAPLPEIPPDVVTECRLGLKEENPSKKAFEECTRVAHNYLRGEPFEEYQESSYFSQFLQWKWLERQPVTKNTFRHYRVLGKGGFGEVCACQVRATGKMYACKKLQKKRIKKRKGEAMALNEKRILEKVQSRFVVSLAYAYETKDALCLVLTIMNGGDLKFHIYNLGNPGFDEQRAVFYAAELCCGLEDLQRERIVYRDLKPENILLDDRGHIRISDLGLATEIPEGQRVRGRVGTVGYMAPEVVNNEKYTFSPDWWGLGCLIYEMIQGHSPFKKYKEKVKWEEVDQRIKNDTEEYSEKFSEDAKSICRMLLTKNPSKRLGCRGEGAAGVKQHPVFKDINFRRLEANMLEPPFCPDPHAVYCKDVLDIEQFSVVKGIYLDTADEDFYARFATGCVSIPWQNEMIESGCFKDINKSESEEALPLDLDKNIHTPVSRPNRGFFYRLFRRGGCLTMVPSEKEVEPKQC
# T5 sequence (P49674 whole entry): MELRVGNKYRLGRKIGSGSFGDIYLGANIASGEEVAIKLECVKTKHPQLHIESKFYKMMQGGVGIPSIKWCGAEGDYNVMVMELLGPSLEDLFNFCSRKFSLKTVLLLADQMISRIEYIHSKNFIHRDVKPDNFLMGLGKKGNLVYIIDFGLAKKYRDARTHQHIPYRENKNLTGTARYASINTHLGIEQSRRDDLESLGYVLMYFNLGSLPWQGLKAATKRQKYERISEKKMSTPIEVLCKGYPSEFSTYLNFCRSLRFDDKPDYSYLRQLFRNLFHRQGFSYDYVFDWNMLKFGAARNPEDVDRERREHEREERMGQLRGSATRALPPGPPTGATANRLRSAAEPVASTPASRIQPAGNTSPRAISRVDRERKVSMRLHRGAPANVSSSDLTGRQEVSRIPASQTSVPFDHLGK
# T2 sequence (P04049 whole entry Y340D/Y341D): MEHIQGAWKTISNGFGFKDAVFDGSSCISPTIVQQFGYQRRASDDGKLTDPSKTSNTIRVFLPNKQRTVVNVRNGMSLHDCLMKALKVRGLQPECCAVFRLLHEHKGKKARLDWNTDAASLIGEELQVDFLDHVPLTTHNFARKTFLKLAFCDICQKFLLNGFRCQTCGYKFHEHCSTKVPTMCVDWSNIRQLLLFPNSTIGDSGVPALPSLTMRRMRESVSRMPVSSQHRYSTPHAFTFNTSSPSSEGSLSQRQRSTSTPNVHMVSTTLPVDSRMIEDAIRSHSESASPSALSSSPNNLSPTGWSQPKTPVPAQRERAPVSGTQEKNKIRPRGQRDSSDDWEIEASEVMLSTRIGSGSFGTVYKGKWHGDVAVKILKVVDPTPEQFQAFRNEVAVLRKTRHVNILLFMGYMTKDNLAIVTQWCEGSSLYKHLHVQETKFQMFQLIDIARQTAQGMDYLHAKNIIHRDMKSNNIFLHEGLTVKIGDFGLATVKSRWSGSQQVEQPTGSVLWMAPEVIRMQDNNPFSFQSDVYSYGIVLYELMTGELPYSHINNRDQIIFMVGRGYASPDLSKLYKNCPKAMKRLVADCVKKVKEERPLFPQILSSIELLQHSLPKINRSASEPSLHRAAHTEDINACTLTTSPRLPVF
smiles,measurement,setting,value
CNC(=O)c1ccc2c(c1)C(=O)c1ccc(Nc3ccc(F)c(NC(=O)C4CC4)c3)cc1CC2 [Compound 2015],remaining activity at 0.2 µM,"340 wild-type kinases [1]; 0.2 µM 2015, read-out: MKK7 residual activity",102%
same,remaining activity at 1 µM,"340 wild-type kinases [1]; 1 µM 2015, read-out: MKK7 residual activity",117%
same,remaining activity at 0.2 µM,"340 wild-type kinases [1]; MKK7, 0.2 µM, read-out: residual activity",102%
same,remaining activity at 1 µM,"340 wild-type kinases [1]; MKK7, 1 µM, read-out: residual activity",117%
same,remaining activity at 0.2 µM,340 wild-type kinases [2]; 0.2 µM 2015,80.3%
same,remaining activity at 1 µM,340 wild-type kinases [2]; 1 µM 2015,88.8%
same,remaining activity at 0.2 µM,"340 wild-type kinases [3]; 0.2 µM 2015, read-out: GRK4 residual activity",123%
same,remaining activity at 1 µM,"340 wild-type kinases [3]; 1 µM 2015, read-out: GRK4 residual activity",104%
same,remaining activity at 0.2 µM,"340 wild-type kinases [3]; GRK4, 0.2 µM, read-out: residual activity",123%
same,remaining activity at 1 µM,"340 wild-type kinases [3]; GRK4, 1 µM, read-out: residual activity",104%
same,remaining activity at 0.2 µM,"340 wild-type kinases [4]; 0.2 µM 2015, read-out: GRK6 residual activity",111%
same,remaining activity at 1 µM,"340 wild-type kinases [4]; 1 µM 2015, read-out: GRK6 residual activity",110%
same,remaining activity at 0.2 µM,"340 wild-type kinases [4]; GRK6, 0.2 µM, read-out: residual activity",111%
same,remaining activity at 1 µM,"340 wild-type kinases [4]; GRK6, 1 µM, read-out: residual activity",110%
same,remaining activity at 0.2 µM,"340 wild-type kinases [5]; 0.2 µM 2015, read-out: CK1epsilon residual activity",114%
same,remaining activity at 1 µM,"340 wild-type kinases [5]; 1 µM 2015, read-out: CK1epsilon residual activity",111%
same,remaining activity at 0.2 µM,"340 wild-type kinases [5]; CK1epsilon, 0.2 µM, read-out: residual activity",114%
same,remaining activity at 1 µM,"340 wild-type kinases [5]; CK1epsilon, 1 µM, read-out: residual activity",111%
same,remaining activity at 0.2 µM,"340 wild-type kinases [6]; 0.2 µM 2015, read-out: CLK1 residual activity",98.6%
same,remaining activity at 1 µM,"340 wild-type kinases [6]; 1 µM 2015, read-out: CLK1 residual activity",93%
same,remaining activity at 0.2 µM,"340 wild-type kinases [6]; CLK1, 0.2 µM, read-out: residual activity",98.6%
same,remaining activity at 1 µM,"340 wild-type kinases [6]; CLK1, 1 µM, read-out: residual activity",93%
same,remaining activity at 0.2 µM,"340 wild-type kinases [7]; 0.2 µM 2015, read-out: BMX residual activity",96.3%
same,remaining activity at 1 µM,"340 wild-type kinases [7]; 1 µM 2015, read-out: BMX residual activity",86.5%
same,remaining activity at 0.2 µM,"340 wild-type kinases [7]; BMX, 0.2 µM, read-out: residual activity",96.3%
same,remaining activity at 1 µM,"340 wild-type kinases [7]; BMX, 1 µM, read-out: residual activity",86.5%
same,remaining activity at 0.2 µM,"340 wild-type kinases [8]; 0.2 µM 2015, read-out: RIPK4 residual activity",104%
same,remaining activity at 1 µM,"340 wild-type kinases [8]; 1 µM 2015, read-out: RIPK4 residual activity",98.2%
same,remaining activity at 0.2 µM,"340 wild-type kinases [8]; RIPK4, 0.2 µM, read-out: residual activity",104%
same,remaining activity at 1 µM,"340 wild-type kinases [8]; RIPK4, 1 µM, read-out: residual activity",98.2%
same,remaining activity at 0.2 µM,"340 wild-type kinases [9]; 0.2 µM 2015, read-out: SIK2 residual activity",101%
same,remaining activity at 1 µM,"340 wild-type kinases [9]; 1 µM 2015, read-out: SIK2 residual activity",98.1%
same,remaining activity at 0.2 µM,"340 wild-type kinases [9]; SIK2, 0.2 µM, read-out: residual activity",101%
same,remaining activity at 1 µM,"340 wild-type kinases [9]; SIK2, 1 µM, read-out: residual activity",98.1%
